From US12325744B2, “Methods for reducing post-operative cognitive dysfunction (POCD)” (The Kennedy Trust for Rheumatology Research, priority 2010, dated 2025)

Tested on: IL-1β
Assay: Plasma (systemic) IL-1β by ELISA after tibial surgery
Format: in vivo
Settings: wild type mice, minocycline 40 mg/kg i.p., enrofloxacin 10 mg/kg or IL-1Ra 100 mg/kg given prior to surgery, vs surgery alone
Source text: Mice were subjected to an open tibial fracture of the left hind paw with intramedullary fixation in aseptic conditions under general anaesthesia with isoflurane and analgesia with buprenorphineas previously described^18. Other groups of animals were not subjected to any intervention (naïve), or received anesthetic/analgesia alone, or underwent surgery with concurrent administration of minocycline, enrofloxacin, or IL-1 receptor antagonist (IL-1Ra). (For further details please refer to supplemental methods).
IL-6, TNF-α and IL-1β were measured by ELISA^19 (Biosource, CA; Bender Medsystem, CA, respectively). Hippocampal IL-1β was measured by ELISA (Bender Medsystem, CA), as previously described^20. To confirm reliability of dilution linearity and spike recovery cytokine measurement were also performed in mice in which inflammation was induced with i.p. LPS (0111:B4, Invivogen, CA). (For further details please refer to supplemental methods).
Mice were randomly assigned to the following groups: surgery under general anesthesia (S), surgery under general anesthesia plus minocycline (M), surgery under general anesthesia plus enrofloxacin (E), surgery under general anesthesia plus interleukin-1 receptor antagonist (IL-1Ra) (I), surgery in IL1R^−/− mice under general anesthesia (K), general anesthesia without surgery (A), and no intervention (naïve wild-type, or naïve IL1R^−/−). Under aseptic conditions, groups of mice were subjected to an open tibial fracture of the left hind paw with an intramedullary fixation as previously described^2. Briefly, isoflurane (Abbot Laboratories Ltd., Queensborough, Kent, UK) 2.1% in air (1.5 MAC)^3 and buprenorphine (Reckitt Benckiser Healthcare Ltd, Hull, UK) 0.1 mg/kg subcutaneously (sc), were given to provide both surgical anesthesia and extended post-operative analgesia for the surgical intervention and post-surgical recovery. After shaving the overlying skin and disinfecting with chlorhexidine gluconate 0.5% and isopropyl alcohol 70% (PDI, Orangeburg, NY, USA) a fracture of the tibial shaft was created under direct vision. […]

**Q.** With `CCN1CCN(c2cc3c(cc2F)c(=O)c(C(=O)O)cn3C2CC2)CC1` [enrofloxacin, reference compound] as the compound, how does the “Plasma IL-1β after surgery, effect of treatment” value read?
**A.** exerted no effect on IL-1β plasma concentration

**Q.** And the “Plasma IL-1β after surgery, effect of treatment” value (listed as Enrofloxacin)?
**A.** failed to reduce plasma levels of IL-1β
